According to US7902252B2, “Inhibitors of D-amino acid oxidase” (Sepracor, Inc., priority 2007, dated 2011):

Key:
Human DAAO = Human DAAO (Homo sapiens, UniProt P14920); assay: D-Amino Acid Oxidase enzyme assay (D-serine, horseradish peroxidase/Amplex Red coupled fluorescence); type: biochemical; settings: D-serine 5 mM, pH 7.4
Procedure, shortened: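 D-serine substrate at 5 mM (Km), 50 mM sodium phosphate pH 7.4; H2O2 output coupled via 4 U/mL horseradish peroxidase and 50 μM Amplex Red to resorufin fluorescence. Reaction started with enzyme; H2O2 control checked coupling interference; IC50 from inhibition curves.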

[1] = tested on: D-serine levels in the cerebellum; assay: In vivo elevation of D-serine levels in the cerebellum; parameters: species or system Mice (C57BL/6); settings: mice, intraperitoneal;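 note: Cutoffs are cerebellum D-serine in nmol/g wet tissue weight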
Protocol: […] Animals are sacrificed at either 2 or 6 h post compound administration with an N=3 per time point. At sacrifice, trunk blood is collected into tubes containing potassium EDTA, which are then centrifuged to permit isolation of plasma. The cerebellum is dissected from each animal. Plasma and cerebellum samples are stored at −80° C. until samples are analyzed (LC/MS/MS).

Sequence of Human DAAO (P14920 whole entry): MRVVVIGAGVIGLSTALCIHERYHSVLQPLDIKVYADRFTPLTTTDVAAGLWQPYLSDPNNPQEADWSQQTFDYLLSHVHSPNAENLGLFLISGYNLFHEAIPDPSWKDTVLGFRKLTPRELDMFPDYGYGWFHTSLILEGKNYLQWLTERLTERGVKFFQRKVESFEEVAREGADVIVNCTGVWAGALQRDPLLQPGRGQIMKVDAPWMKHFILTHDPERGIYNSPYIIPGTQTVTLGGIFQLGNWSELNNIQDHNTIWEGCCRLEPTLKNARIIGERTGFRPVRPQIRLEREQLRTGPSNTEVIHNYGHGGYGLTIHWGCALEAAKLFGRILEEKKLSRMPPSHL

Structure (SMILES)	IC50 (Human DAAO)	Cerebellum D-serine at 2 hours ([1]; dose 30 mg/kg)	Cerebellum D-serine at 6 hours ([1]; dose 30 mg/kg)	Cerebellum D-serine at 2 hours ([1]; dose 60 mg/kg)	Cerebellum D-serine at 6 hours ([1]; dose 60 mg/kg)
COc1cccc(CC2CCc3cc(C(=O)O)[nH]c32)c1 (single isomer, unassigned) [Compound 131, 6-(3-methoxybenzyl)-1,4,5,6-tetrahydrocyclopenta[b]pyrrole-2-carboxylic acid]	≤ 0.1 µM	(+) (2.5-4.9 = (+))	(+) (2.5-4.9 = (+))	–	–
O=C(O)c1cc2c([nH]1)CC1CC21 (single isomer, unassigned) [Compound 140, 1a,4,5,5a-tetrahydro-1H-4-aza-cyclopropa[α]pentalene-3-carboxylic acid]	≤ 0.1 µM	(++) (>5 = (++))	(++) (>5 = (++))	–	–
O=C(O)c1cc2c([nH]1)CCC2 [Compound 1, 1,4,5,6-tetrahydro-cyclopenta[b]pyrrole-2-carboxylic acid]	≤ 0.1 µM	(++) (>5 = (++))	(++) (>5 = (++))	–	–
O=C(O)c1cc2c([nH]1)CCC2Cc1cccc(F)c1 (centres unmarked) [Compound 54, 4-(3-fluorobenzyl)-1,4,5,6-tetrahydrocyclopenta[b]pyrrole-2-carboxylic acid]	≤ 0.1 µM	(+) (2.5-4.9 = (+))	(+) (2.5-4.9 = (+))	–	–
Cc1cccc(CC2CCc3[nH]c(C(=O)O)cc32)c1 (centres unmarked) [Compound 70, 4-(3-methylbenzyl)-1,4,5,6-tetrahydrocyclopenta[b]pyrrole-2-carboxylic acid]	≤ 0.1 µM	–	–	(+) (2.5-4.9 = (+))	(+) (2.5-4.9 = (+))
O=C(O)c1cc2c([nH]1)CCC2c1ccc(F)c(F)c1 (centres unmarked) [Compound 97, 4-(3,4-difluorophenyl)-1,4,5,6-tetrahydrocyclopenta[b]pyrrole-2-carboxylic acid]	≤ 0.1 µM	–	–	(+) (2.5-4.9 = (+))	(+) (2.5-4.9 = (+))
N#Cc1cccc(C2CCc3[nH]c(C(=O)O)cc32)c1 (centres unmarked) [Compound 105, 4-(3-cyanophenyl)-1,4,5,6-tetrahydrocyclopenta[b]pyrrole-2-carboxylic acid]	≤ 0.1 µM	–	–	(−) (<2.5 = (−))	–
O=C(O)c1cc2c([nH]1)C(Cc1cc(F)cc(Cl)c1)CC2 (centres unmarked) [Compound 124, 6-(3-chloro-5-fluorobenzyl)-1,4,5,6-tetrahydrocyclopenta[b]pyrrole-2-carboxylic acid]	≤ 0.1 µM	–	–	(−) (<2.5 = (−))	(−) (<2.5 = (−))
CCOC(=O)c1[nH]c2c(c1O)CCC2 [Compound 137, ethyl 3-hydroxy-1,4,5,6-tetrahydrocyclopenta[b]pyrrole-2-carboxylate]	> 100 µM	(+) (2.5-4.9 = (+))	(+) (2.5-4.9 = (+))	–	–
O=C(O)c1cc2c([nH]1)[C@@H]1C[C@@H]1C2 [Compound 146, (1aR,5aR)-1a,2,5,5a-tetrahydro-1H-2-aza-cyclopropa[α]pentalene-3-carboxylic acid]	≤ 0.1 µM	–	–	(++) (>5 = (++))	(++) (>5 = (++))
